The subject of data set [1] is Typhlodromus pyri. Nature of the data set: LR50; higher = less toxic. As to conditions: mortality.
The test system of data set [2] is Hypoaspis aculeifer. The note with it: chronic/long-term; reproduction.
Data set [3] has as its system Oncorhynchus mykiss. As to conditions: acute; duration: 96 hours; mortality.
For data set [4], the system named is Pimephales promelas. As to conditions: chronic/long-term; duration: 28 days.
In data set [5] the test system is Colinus virginianus. The note with it: acute, oral, mortality.
Data set [6] deals with Coturnix japonica. The note with it: reproduction developmental.
The test system of data set [7] is Apis mellifera. As to conditions: acute, mortality.
Data set [8] concerns Rattus norvegicus.
Data set [9] concerns Bibionidae. As to conditions: chronic/long-term; duration: 23 days; reproduction.
Data set [10] has as its system Tagia sp. As to conditions: chronic/long-term; reproduction.

With `Cc1ccc(-c2c(Cl)nc(C#N)n2S(=O)(=O)N(C)C)cc1`, the LR50 in [1] (acute, duration: 10 days) came to 256 g/ha; in data set [1] (not reported), 80 g/ha. Moreover, the NOEC is 18.7 mg/kg in [2], 0.09 mg/L in data set [4], 0.0117 mg/L in [9] and 2 mg/kg in [10]. The molecule also displayed an LC50 in data set [3] above 0.107 µg/mL. In addition, the LD50 is above 1280 mg/kg-day in data set [5] (diet); above 2000 mg/kg-day in data set [5]; 9.52 µg/piece in [7] (dermal); above 31.8 µg/piece in data set [7] (oral, unspecified); above 5000 mg/kg-day in data set [8] (acute, oral, mortality). The NOAEL in data set [6] was found to be 151 mg/kg-day; in [8] (chronic, duration: 2 years, organ weight) it was 17 mg/kg-day; in [8] (reproduction developmental, body weight), 89 mg/kg-day; in [8] (subchronic, duration: 90 days, oral, organ weight), 29.5 mg/kg-day.

For the origin of these results see EPA's ToxValDB 9.5 (doi:10.2903/j.efsa.2020.6232).
